Converted amounts (≈) assume the structure as drawn. Numbered stars: 1 amine (or outer) side, 2 acyl side, 3 side chain; on linkers, the order of the positions; unused ones are H or OH. Square brackets hold non-standard residues; d marks the D form. Peptide text beside a SMILES is read from it. * marks the point of attachment. ξ: configuration not given here. X1 = N=C1NCC(C(O)C(N[*:1])C(=O)[*:2])N1C1OC(CO)C(O)C(O)C1O; ξEnduracididine(βξ-OH,4'ξ) = N=C1NCC(C(O)C(N)C(=O)O)N1; X2 = OCC1OC(OC2C(CO)OC(*)C(O)C2O)C(O)C(O)C1O; Cha = N[CH](CC1CCCCC1)C(=O)O
Tests used:
[1] = anatomic pathology (histopathology of heart and kidney) in mice; assay type: in vivo; settings: CD-1 mice, 20 mg/kg intravenously daily for 9 days, necropsy day 10, microscopic histopathology
Experimental: Samples of tissues from necropsied mice were formalin-fixed, paraffin-embedded, sectioned, stained with hematoxylin and eosin, and examined microscopically. Histopathologic findings were recorded. These findings were subjectively graded on a scale corresponding to slight, mild, moderate, marked and severe as compared to untreated controls.

[2] = clinical pathology (serum clinical chemistry) in mice; assay type: in vivo; settings: CD-1 mice, 20 mg/kg intravenously daily for 9 days, sera day 10
Experimental: 20-day-old CD-1 mice were divided into a vehicle control group (5 mice) and a treatment group (5 mice). Samples of glycopeptide antibiotics were administered at 20 mg/kg intravenously daily for 9 days.

[3] = system: Streptococcus sp.; experiment: in vitro antibacterial evaluation, MIC by broth dilution; assay type: cell-based; settings: broth dilution, 18 hours at 35° C.; for MIC Streptococcus agalactiae (GC 4564): strain GC 4564
How it was run: (§1)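 Following National Committee for Clinical Laboratory Standards recommendations (M7-A2), susceptibility was measured by dilution in Muller-Hinton II […]. Bacteria were seeded at 5×10^5 CFU/mL against compound concentrations from 64 down to 0.06 μg/mL.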

[4] = system: Escherichia coli; experiment: as above; assay type: cell-based; settings: 18 hours at 35° C.
How it was run: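 Test organisms, which included recent clinical isolates resistant to methicillin, penicillin and/or vancomycin, were inoculated at 5×10^5 CFU/mL into Muller-Hinton II […] containing antibiotic at 64-0.06 μg/mL. Minimum inhibitory concentrations were then read as the lowest level inhibiting growth.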

[5] = system: Enterococcus sp.; experiment: as above; assay type: cell-based; settings: broth dilution, 18 hours at 35° C.; for MIC Enterococcus faecalis (GC 2242): strain GC 2242; for MIC Enterococcus faecalis (GC 4552): strain GC 4552
How it was run: as §1

[6] = system: Staphylococcus sp.; experiment: as above; assay type: cell-based; settings: broth dilution, 18 hours at 35° C.
How it was run: as §1

[7] = Enterococcus faecalis (ATCC 29212)
[8] = Enterococcus faecalis (GC 4553)
[9] = Enterococcus faecalis (GC 4554)

N=C1NCC(C(O)C2NC(=O)C(Cc3ccc(OC4OC(CO)C(OC5OC(CO)C(O)C(O)C5O)C(O)C4O)cc3)NC(=O)C(CC3CCCCC3)NC(=O)CNC(=O)C(CO)NC(=O)C(C(O)C3CNC(=N)N3C3OC(CO)C(O)C(O)C3O)NC2=O)N1 (stereo not drawn) [Example 263, Cyclo[3-cyclohexylalanyl-O-(4-O-hexopyranosylhexopyranosyl)tyrosyl-3-(2-iminoimidazolidin-4-yl)seryl-3-(3-hexopyranosyl-2-iminoimidazolidin-4-yl)serylserylglycyl]] (cyclo(G[Cha]Y(X2)[ξEnduracididine(βξ-OH,4'ξ)][X1]S); configuration not given here)
Anatomical Pathology (Day 10), Heart [1]: +
Anatomical Pathology (Day 10), Kidney [1]: ++
Clinical Chemistry (Day 10) % of Control, Creatinine [2]: +116%
MIC Streptococcus agalactiae (GC 4564) [3]: 32 µg/mL (≈ 24.9 µM)
MIC Streptococcus pyogenes (ID-3187) ([3]; strain ID-3187): 32 µg/mL (≈ 24.9 µM)
MIC Escherichia coli (ATCC 25922) [4]: >64 µg/mL
MIC Escherichia coli (GC 4559) [4]: >64 µg/mL
MIC Escherichia coli (GC 4560) [4]: 16 µg/mL (≈ 12.4 µM)
MIC Enterococcus avium (GC 4558) ([5]; Enterococcus avium (GC 4558)): >64 µg/mL
MIC Enterococcus faecalis (ATCC 29212) [5, 7]: >64 µg/mL
MIC Enterococcus faecalis (GC 4553) [5, 8]: >64 µg/mL
MIC Enterococcus faecalis (GC 4554) [5, 9]: >64 µg/mL
MIC Enterococcus faecium (GC 2243) ([5]; Enterococcus faecium (GC 2243)): >64 µg/mL
MIC Enterococcus faecium (GC 4556) ([5]; Enterococcus faecium (GC 4556)): >64 µg/mL
MIC Enterococcus faecium (GC 4557) ([5]; Enterococcus faecium (GC 4557)): 32 µg/mL (≈ 24.9 µM)
MIC Enterococcus faecalis (ATCC 29212) ([5]; strain ATCC 29212): >64 µg/mL
MIC Enterococcus faecalis (GC 2242) [5]: >64 µg/mL
MIC Enterococcus faecium (GC 2243) ([5]; strain GC 2243): >64 µg/mL
MIC Enterococcus faecalis (GC 4552) [5]: >64 µg/mL
MIC Enterococcus faecalis (GC 4553) ([5]; strain GC 4553): >64 µg/mL
MIC Enterococcus faecalis (GC 4554) ([5]; strain GC 4554): >64 µg/mL
MIC Enterococcus faecium (GC 4556) ([5]; strain GC 4556): >64 µg/mL
MIC Enterococcus faecium (GC 4557) ([5]; strain GC 4557): 32 µg/mL (≈ 24.9 µM)
MIC Enterococcus avium (GC 4558) ([5]; strain GC 4558): >64 µg/mL
MIC Coagulase Negative Staphylococcus (GC 4547) [6]: 64 µg/mL (≈ 49.7 µM)
MIC Coagulase Negative Staphylococcus (GC 4548) [6]: 32 µg/mL (≈ 24.9 µM)
MIC Coagulase Negative Staphylococcus (GC 4549) [6]: 16 µg/mL (≈ 12.4 µM)
MIC Coagulase Negative Staphylococcus (GC 4551) [6]: 64 µg/mL (≈ 49.7 µM)
MIC Staphylococcus aureus (ATCC 29213) [6]: 64 µg/mL (≈ 49.7 µM)
MIC Staphylococcus aureus (GC 1131) [6]: 64 µg/mL (≈ 49.7 µM)
MIC Staphylococcus aureus (GC 4541) [6]: 64 µg/mL (≈ 49.7 µM)
MIC Staphylococcus aureus (GC 4542) [6]: 64 µg/mL (≈ 49.7 µM)
MIC Staphylococcus aureus (GC 4544) [6]: >64 µg/mL
MIC Staphylococcus aureus (GC 4545) [6]: 64 µg/mL (≈ 49.7 µM)
MIC Staphylococcus aureus-SMITH (GC 4543) [6]: 32 µg/mL (≈ 24.9 µM)
MIC Staphylococcus haemolyticus (GC 4546) [6]: 32 µg/mL (≈ 24.9 µM)
MIC Staphylococcus aureus (ATCC 29213) ([6]; strain ATCC 29213): 64 µg/mL (≈ 49.7 µM)
MIC Staphylococcus aureus (GC 1131) ([6]; strain GC 1131): 64 µg/mL (≈ 49.7 µM)
MIC Staphylococcus aureus (GC 4541) ([6]; strain GC 4541): 64 µg/mL (≈ 49.7 µM)
MIC Staphylococcus aureus (GC 4542) ([6]; strain GC 4542): 64 µg/mL (≈ 49.7 µM)
MIC Staphylococcus aureus (GC 4544) ([6]; strain GC 4544): >64 µg/mL
MIC Staphylococcus aureus (GC 4545) ([6]; strain GC 4545): 64 µg/mL (≈ 49.7 µM)
MIC Staphylococcus haemolyticus (GC 4546) ([6]; strain GC 4546): 32 µg/mL (≈ 24.9 µM)
MIC Coagulase Negative Staphylococcus (GC 4547) ([6]; strain GC 4547): 64 µg/mL (≈ 49.7 µM)
MIC Coagulase Negative Staphylococcus (GC 4548) ([6]; strain GC 4548): 32 µg/mL (≈ 24.9 µM)
MIC Coagulase Negative Staphylococcus (GC 4549) ([6]; strain GC 4549): 16 µg/mL (≈ 12.4 µM)
MIC Coagulase Negative Staphylococcus (GC 4551) ([6]; strain GC 4551): 64 µg/mL (≈ 49.7 µM)
MIC Staphylococcus aureus-SMITH (GC 4543) ([6]; strain SMITH GC 4543): 32 µg/mL (≈ 24.9 µM)

CC(C)CC(=O)OC1C(OC2C(CO)OC(Oc3ccc(CC4NC(=O)C(C(C)c5ccccc5)NC(=O)CNC(=O)C(CO)NC(=O)C(CC5CNC(=N)N5C5OC(CO)C(O)C(O)C5O)NC(=O)C(CC5CNC(=N)N5)NC4=O)cc3)C(O)C2O)OC(CO)C(O)C1O (stereo not drawn) [Example 277b, Cyclo[3-(2-iminoimidazolidin-4-yl)alanyl-3-(3-hexogyranosyl-2-iminoimidazolidin-4-yl)-alanylserylglycyl-β-methylphenylalanyl-O-[4-O-[2-O-(3-methylbutanoyl)hexopyranosyl]-hexopyranosyl]tyrosyl]]
Anatomical Pathology (Day 10), Heart [1]: 0
Anatomical Pathology (Day 10), Kidney [1]: +
Clinical Chemistry (Day 10) % of Control, ALT [2]: +164%
Clinical Chemistry (Day 10) % of Control, AST [2]: +138%
Clinical Chemistry (Day 10) % of Control, BUN [2]: +113%
MIC Streptococcus pneumoniae (ATCC 6301) ([3]; strain ATCC 6301): 64 µg/mL (≈ 47.5 µM)
MIC Streptococcus pneumoniae (GC 1894) ([3]; strain GC 1894): >64 µg/mL
MIC Streptococcus pyogenes (GC 4563) ([3]; strain GC 4563): >64 µg/mL
MIC Streptococcus agalactiae (GC 4564) [3]: >64 µg/mL
MIC Streptococcus pneumoniae (GC 4565) ([3]; strain GC 4565): >64 µg/mL
MIC Escherichia coli (ATCC 25922) [4]: >64 µg/mL
MIC Escherichia coli (GC 4559) [4]: >64 µg/mL
MIC Escherichia coli (GC 4560) [4]: 32 µg/mL (≈ 23.7 µM)
MIC Enterococcus avium (GC 4558) ([5]; Enterococcus avium (GC 4558)): >64 µg/mL
MIC Enterococcus faecalis (ATCC 29212) [5, 7]: >64 µg/mL
MIC Enterococcus faecalis (GC 4553) [5, 8]: >64 µg/mL
MIC Enterococcus faecalis (GC 4554) [5, 9]: >64 µg/mL
MIC Enterococcus faecalis (GC 6189) ([5]; Enterococcus faecalis (GC 6189)): >64 µg/mL
MIC Enterococcus faecium (GC 2243) ([5]; Enterococcus faecium (GC 2243)): >64 µg/mL
MIC Enterococcus faecium (GC 4556) ([5]; Enterococcus faecium (GC 4556)): >64 µg/mL
MIC Enterococcus faecium (GC 4557) ([5]; Enterococcus faecium (GC 4557)): >64 µg/mL
MIC Enterococcus faecalis (ATCC 29212) ([5]; strain ATCC 29212): >64 µg/mL
MIC Enterococcus faecalis (GC 2242) [5]: >64 µg/mL
MIC Enterococcus faecium (GC 2243) ([5]; strain GC 2243): >64 µg/mL
MIC Enterococcus faecalis (GC 2691) ([5]; strain GC 2691): >64 µg/mL
MIC Enterococcus faecalis (GC 3059) ([5]; strain GC 3059): >64 µg/mL
MIC Enterococcus faecalis (GC 4552) [5]: >64 µg/mL
MIC Enterococcus faecalis (GC 4553) ([5]; strain GC 4553): >64 µg/mL
MIC Enterococcus faecalis (GC 4554) ([5]; strain GC 4554): >64 µg/mL
MIC Enterococcus faecium (GC 4556) ([5]; strain GC 4556): >64 µg/mL
MIC Enterococcus faecium (GC 4557) ([5]; strain GC 4557): >64 µg/mL
MIC Enterococcus avium (GC 4558) ([5]; strain GC 4558): >64 µg/mL
MIC Enterococcus faecalis (GC 6189) ([5]; strain GC 6189): >64 µg/mL
MIC Coagulase Negative Staphylococcus (GC 4547) [6]: >64 µg/mL
MIC Coagulase Negative Staphylococcus (GC 4548) [6]: >64 µg/mL
MIC Coagulase Negative Staphylococcus (GC 4549) [6]: >64 µg/mL
MIC Coagulase Negative Staphylococcus (GC 4551) [6]: >64 µg/mL
MIC Coagulase Negative Staphylococcus (GC 6257) [6]: >64 µg/mL
MIC Staphylococcus aureus (ATCC 29213) [6]: >64 µg/mL
MIC Staphylococcus aureus (GC 1131) [6]: >64 µg/mL
MIC Staphylococcus aureus (GC 3051) [6]: >64 µg/mL
MIC Staphylococcus aureus (GC 3053) [6]: >64 µg/mL
MIC Staphylococcus aureus (GC 4541) [6]: >64 µg/mL
MIC Staphylococcus aureus (GC 4542) [6]: >64 µg/mL
MIC Staphylococcus aureus (GC 4544) [6]: >64 µg/mL
MIC Staphylococcus aureus (GC 4545) [6]: >64 µg/mL
MIC Staphylococcus aureus-SMITH (GC 4543) [6]: >64 µg/mL
MIC Staphylococcus haemolyticus (GC 4546) [6]: >64 µg/mL
MIC Staphylococcus aureus (ATCC 29213) ([6]; strain ATCC 29213): >64 µg/mL
MIC Staphylococcus aureus (GC 1131) ([6]; strain GC 1131): >64 µg/mL
MIC Staphylococcus aureus (GC 3051) ([6]; strain GC 3051): >64 µg/mL
MIC Staphylococcus aureus (GC 3053) ([6]; strain GC 3053): >64 µg/mL
MIC Staphylococcus aureus (GC 4541) ([6]; strain GC 4541): >64 µg/mL
MIC Staphylococcus aureus (GC 4542) ([6]; strain GC 4542): >64 µg/mL
MIC Staphylococcus aureus (GC 4544) ([6]; strain GC 4544): >64 µg/mL
MIC Staphylococcus aureus (GC 4545) ([6]; strain GC 4545): >64 µg/mL
MIC Staphylococcus haemolyticus (GC 4546) ([6]; strain GC 4546): >64 µg/mL
MIC Coagulase Negative Staphylococcus (GC 4547) ([6]; strain GC 4547): >64 µg/mL
MIC Coagulase Negative Staphylococcus (GC 4548) ([6]; strain GC 4548): >64 µg/mL
MIC Coagulase Negative Staphylococcus (GC 4549) ([6]; strain GC 4549): >64 µg/mL
MIC Coagulase Negative Staphylococcus (GC 4551) ([6]; strain GC 4551): >64 µg/mL
MIC Coagulase Negative Staphylococcus (GC 6257) ([6]; strain GC 6257): >64 µg/mL
MIC Staphylococcus aureus-SMITH (GC 4543) ([6]; strain SMITH GC 4543): >64 µg/mL

Reference: US6914045B2, “Glycopeptide antibiotics” (Wyeth Holdings Corporation, priority 2001, dated 2005)
